Experimental findings from patent US11007200B2, “Cycloalkyl-diamines for the treatment of pain” (MediSynergics, LLC, priority 2019, dated 2021) are described below.

In one test the target is Sigma-1. Nature of the test: Sigma-1 Ki determination (NIMH-PDSP). The test is classed as binding. Conditions: standard drug haloperidol. Here is the method:
(§1) The compounds from the above Examples were tested for Sigma-1 and Sigma-2 activity. Ki determinations were generously provided by the National Institute of Mental Health's Psychoactive Drug Screening Program (PDSP), Contract #HHSN-272-2013-000017-C(NIMH-PDSP). The NIMH-PDSP is directed by Bryan L Roth MD, PhD at the University of North Carolina at Chapel Hill, N.C. and Project Officer Jamie Driscoll at NIMH, Bethesda, Md., USA. Procedures employed by the PDSP as described in the NIMH-PDSP Assay Protocol Book, Version II. The standard drug used in both Sigma subtype assays is haloperidol.

Another test has as its target Sigma-2. Nature of the test: Sigma-2 Ki determination (NIMH-PDSP). Conditions: standard drug haloperidol. The test is classed as binding. Here is the method:
as §1

Counter-ions that a name gives are not always drawn.

In general, Ki refers to a dissociation constant, usually derived from enzyme kinetics or from competition with a known ligand. `CN[C@]1(c2ccccc2Cl)CCCC[C@@H]1NCCCN1CCCC1` (relative stereo) [Example 2a, Cis-(1S,2S)-1-(2-chlorophenyl)-N^1-methyl-N^2-[3-(pyrrolidin-1-yl)propyl]-cyclohexane-1,2-diamine trihydrochloride]: the Ki at Sigma-1 turned out to be 17.3 nM; at Sigma-2, 59.8 nM.
For the compound `CN[C@]1(c2ccccc2Cl)CCCC[C@H]1NCCCN1CCCC1` (relative stereo) [Example 2b, Trans-(1S,2R)-1-(2-chlorophenyl)-N^1-methyl-N^2-[3-(pyrrolidin-1-yl)propyl]-cyclohexane-1,2-diamine trihydrochloride], the values for the Ki on Sigma-1 and on Sigma-2 were 37.2 nM and 305 nM, respectively.
For `CN[C@]1(c2ccccc2Cl)CCCC[C@@H]1NCCCc1ccc(F)cc1` (relative stereo) [Example 3a, Cis-(1S,2S)-1-(2-chlorophenyl)-N^2-[3-(4-fluorophenyl)propyl]-N^1-methyl-cyclohexane-1,2-diamine dihydrochloride], in that order: 35.4 nM and 18 nM.
`CN[C@]1(c2ccccc2Cl)CCCC[C@H]1NCCCc1ccc(F)cc1` (relative stereo) [Example 3b, Trans-(1S,2R)-1-(2-chlorophenyl)-N^2-[3-(4-fluorophenyl)propyl]-N^1-methyl-cyclohexane-1,2-diamine dihydrochloride]: the inhibitory constant (Ki) on Sigma-1 came to 217 nM; at Sigma-2 it was 675 nM.
Take `CN[C@]1(c2ccccc2Cl)CCCC[C@@H]1NCCCc1ccccc1` (relative stereo) [Example 4a, Cis-(1S,2S)-1-(2-chlorophenyl)-N^1-methyl-N^2-(3-phenylpropyl)cyclohexane-1,2-diamine dihydrochloride]: the Ki worked out at 97.2 nM on Sigma-1 and 15.5 nM on Sigma-2.
For `CN[C@]1(c2ccccc2Cl)CCCC[C@H]1NCCCc1ccccc1` (relative stereo) [Example 4b, Trans-(1S,2R)-1-(2-chlorophenyl)-N^1-methyl-N^2-(3-phenylpropyl)cyclohexane-1,2-diamine dihydrochloride], in that order: 697 nM and 426 nM.
For `CN[C@]1(c2ccccc2Cl)CCCC[C@@H]1NCCCN1CCN(C)CC1` (relative stereo) [Example 13a, Cis-(1S,2S)-1-(2-chlorophenyl)-N^1-methyl-N^2-(3-(4-methylpiperazin-1-yl)propyl)cyclohexane-1,2-diamine tetrahydrochloride], in that order: 70 nM and 98 nM.
`CN[C@]1(c2ccccc2Cl)CCCC[C@H]1NCCCN1CCN(C)CC1` (relative stereo) [Example 13b, Trans-(1S,2R)-1-(2-chlorophenyl)-N^1-methyl-N^2-(3-(4-methylpiperazin-1-yl)propyl)cyclohexane-1,2-diamine tetrahydrochloride]: the figures for the Ki at Sigma-1 and at Sigma-2 were 146 nM and 435 nM, respectively.
